Experimental data taken from patent US8183263B2 (priority 2007, dated 2012).

Test system: HCV replicon
Experiment: HCV replicon replication assay (NPT level by captured ELISA)
Format: cell-based
Details: Hepatitis C virus, 72 h; Huh-7 HCV replicon-containing cells, three days incubation; read-out: Activity (inhibition of HCV replicon replication)
How it was run: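 Huh-7 cells carrying HCV subgenomic replicon (NS3–NS5B, neo reporter) treated 3 days at 37 °C with 6 concentrations from 10 to 0.03 micromolar in G418-free medium, equal DMSO across wells. Replication measured on day four as NPTII level by in-cell captured ELISA on fixed cells; interferon alpha as positive control.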

`CCCCCCCCOc1ccc(N(N)c2nc(-c3cccnc3)c(F)s2)cc1C(F)(F)F` [Cmp 120, 5-fluoro-2-(1-(4-(octyloxy)-3-(trifluoromethyl)phenyl)hydrazinyl)-4-(pyridin-3-yl)thiazole] and `CCCCCCCCOc1ccc(N(C)c2nc(-c3cccnc3)c(F)s2)cc1C(F)(F)F` [Cmp 159, 5-fluoro-N-methyl-N-(4-(octyloxy)-3-(trifluoromethyl)phenyl)-4-(pyridin-3-yl)thiazol-2-amine] cannot be ordered by EC50: under 1000 nM for the first, under 1000 nM for the second.

`CCCCCCCCOc1ccc(Nc2nc(-c3cnc(OC)nc3)c(CN(C)C)s2)cc1C(F)(F)F` [Cmp 121, 5-((dimethylamino)methyl)-4-(2-methoxypyrimidin-5-yl)-N-(4-(octyloxy)-3-(trifluoromethyl)phenyl)thiazol-2-amine] and `CCCCCCCCOc1ccc(Nc2nc(-c3cccnc3)c(CN(C)C)s2)cc1C(F)(F)F` [Cmp 157, 5-((dimethylamino)methyl)-N-(4-(octyloxy)-3-(trifluoromethyl)phenyl)-4-(pyridin-3-yl)thiazol-2-amine] fall in the same range of EC50: 1000 to 10000 nM for the first, 1000 to 10000 nM for the second.

`CCCCCCCCC1Cc2ccc(Nc3nc(-c4cccnc4)cs3)cc2O1` (stereo not shown) [Cmp 123, N-(2-octyl-2,3-dihydrobenzofuran-6-yl)-4-(pyridin-3-yl)thiazol-2-amine] and `CCCCCCCCC1Cc2ccc(Nc3nc(-c4ccc(C)nc4)cs3)cc2O1` (stereo not shown) [Cmp 124, 4-(6-methylpyridin-3-yl)-N-(2-octyl-2,3-dihydrobenzofuran-6-yl)thiazol-2-amine] cannot be ordered by EC50: under 1000 nM for the first, under 1000 nM for the second.

`Cc1ccc(CCCCOc2cc(Nc3nc(-c4cccnc4)cs3)ccc2C(F)(F)F)cc1` [Cmp 125, 4-(pyridin-3-yl)-N-(3-(4-p-tolylbutoxy)-4-(trifluoromethyl)phenyl)thiazol-2-amine] and `Cc1ccc(CCCCOc2cc(Nc3nc(-c4cccnc4)c(F)s3)ccc2C(F)(F)F)cc1` [Cmp 126] cannot be ordered by EC50: under 1000 nM for the first, under 1000 nM for the second.

`Cc1ccc(OCCCc2ccc(Nc3nc(-c4cccnc4)c(F)s3)cc2C(F)(F)F)cc1` [Cmp 127, 5-fluoro-4-(pyridin-3-yl)-N-(4-(3-(p-tolyloxy)propyl)-3-(trifluoromethyl)phenyl)thiazol-2-amine] and `Fc1sc(Nc2ccc(CCCCOc3ccccc3)c(C(F)(F)F)c2)nc1-c1cccnc1` [Cmp 136, 5-fluoro-N-(4-(4-phenoxybutyl)-3-(trifluoromethyl)phenyl)-4-(pyridin-3-yl)thiazo1-2-amine] cannot be ordered by EC50: under 1000 nM for the first, under 1000 nM for the second.

`CCCCCCCCc1cc2cc(Nc3nc(-c4cccnc4)c(F)s3)ccc2o1` [Cmp 128, 5-fluoro-N-(2-octylbenzofuran-5-yl)-4-(pyridin-3-yl)thiazol-2-amine] and `CCCCCCCCc1cc2ccc(Nc3nc(-c4cccnc4)c(F)s3)cc2o1` [Cmp 133, 5-fluoro-N-(2-octylbenzofuran-6-yl)-4-(pyridin-3-yl)thiazol-2-amine] cannot be ordered by EC50: under 1000 nM for the first, under 1000 nM for the second.

`CCCCCCCCC1Cc2ccc(Nc3nc(-c4cccnc4)c(F)s3)cc2O1` (stereo not shown) [Cmp 129, 5-fluoro-N-(2-octyl-2,3-dihydrobenzofuran-6-yl)-4-(pyridin-3-yl)thiazol-2-amine] and `CCCCCCCCOc1ccc(Nc2nc(-c3cccnc3)c(F)s2)cc1C(C)=O` [Cmp 149, 1-(5-(5-fluoro-4-(pyridin-3-yl)thiazol-2-ylamino)-2-(octyloxy)phenyl)ethanone] cannot be ordered by EC50: under 1000 nM for the first, under 1000 nM for the second.

`CC(=O)c1cc(Nc2nc(-c3cccnc3)c(F)s2)ccc1Oc1ccc(Cl)cc1` [Cmp 130, 1-(2-(4-chlorophenoxy)-5-(5-fluoro-4-(pyridin-3-yl)thiazol-2-ylamino)phenyl)ethanone] and `CCc1ccc(Oc2ccc(Nc3nc(-c4cccnc4)c(F)s3)cc2C(C)=O)cc1` [Cmp 131, 1-(2-(4-ethylphenoxy)-5-(5-fluoro-4-(pyridin-3-yl)thiazol-2-ylamino)phenyl)ethanone] cannot be ordered by EC50: under 1000 nM for the first, under 1000 nM for the second.

`FC(F)(F)c1cc(Nc2nc(-c3cccnc3)cs2)ccc1CCCCOc1ccccc1` [Cmp 132] and `FC(F)(F)c1cc(Nc2nc(-c3cccnc3)cs2)ccc1OCCCCc1cnc2ccccc2c1` [Cmp 145, 4-(pyridin-3-yl)-N-(4-(4-(quinolin-3-yl)butoxy)-3-(trifluoromethyl)phenyl)thiazol-2-amine] cannot be ordered by EC50: under 1000 nM for the first, under 1000 nM for the second.

First: CCCCCCCCc1ccc(Nc2nc(-c3ccc(OC(=O)[C@@H](N)C(C)C)nc3)cs2)cc1C(F)(F)F [Cmp 135, (S)-5-(2-(4-octyl-3-(trifluoromethyl)phenylamino)thiazol-4-yl)pyridin-2-yl 2-amino-3-methylbutanoate]
Second: CCCCCCCCc1ccc(Nc2nc(-c3cnccn3)cs2)cc1C(F)(F)F [Cmp 161, N-(4-octyl-3-(trifluoromethyl)phenyl)-4-(pyrazin-2-yl)thiazol-2-amine]
The EC50 of the first is higher: 1000 to 10000 nM for the first, under 1000 nM for the second. The second is the more potent here.

`FC(F)(F)c1cc(Nc2nc(-c3cccnc3)cs2)ccc1OCCCCc1ccncc1` [Cmp 137, 4-(pyridin-3-yl)-N-(4-(4-(pyridin-4-yl)butoxy)-3-(trifluoromethyl)phenyl)thiazol-2-amine] and `CCCCCCCCOc1ccc(Nc2nc(-c3cncc(O)c3)cs2)cc1C(F)(F)F` [Cmp 152, 5-(2-(4-(octyloxy)-3-(trifluoromethyl)phenylamino)thiazol-4-yl)pyridin-3-ol] cannot be ordered by EC50: under 1000 nM for the first, under 1000 nM for the second.

`CCCCCCCCc1c(F)cc(Nc2nc(-c3cccnc3)c(F)s2)cc1F` [Cmp 138, N-(3,5-difluoro-4-octylphenyl)-5-fluoro-4-(pyridin-3-yl)thiazol-2-amine] and `CCCCCCCCOc1ccc(Nc2nc(-c3cccnc3)c(F)s2)cc1` [Cmp 141, 5-fluoro-N-(4-(octyloxy)phenyl)-4-(pyridin-3-yl)thiazol-2-amine] cannot be ordered by EC50: under 1000 nM for the first, under 1000 nM for the second.

`Fc1sc(Nc2ccc(OCCOc3ccccc3)c(C(F)(F)F)c2)nc1-c1cccnc1` [Cmp 139, 5-fluoro-N-(4-(2-phenoxyethoxy)-3-(trifluoromethyl)phenyl)-4-(pyridin-3-yl)thiazol-2-amine] and `Fc1ccc(C#CCCOc2ccc(Nc3nc(-c4cccnc4)c(F)s3)cc2C(F)(F)F)cc1` [Cmp 163, 5-fluoro-N-(4-(4-(4-fluorophenyl)but-3-ynyloxy)-3-(trifluoromethyl)phenyl)-4-(pyridin-3-yl)thiazol-2-amine] cannot be ordered by EC50: under 1000 nM for the first, under 1000 nM for the second.

Compared with `CCCCCCCCOc1ccc(Nc2nc(-c3cccnc3)cs2)cc1C(C)=O` [Cmp 140, 1-(2-(octyloxy)-5-(4-(pyridin-3-yl)thiazol-2-ylamino)phenyl)ethanone], `CCCCCCCCOc1ccc(Nc2nc(-c3cccnc3)cs2)cc1C(=O)O` [Cmp 155, 2-(octyloxy)-5-(4-(pyridin-3-yl)thiazol-2-ylamino)benzoic acid] is higher in EC50: under 1000 nM for the first, over 10000 nM for the second.

First: CCCCCCCCOc1ccc(Nc2nc(-c3ccc[n+](C)c3)cs2)cc1C(F)(F)F [Cmp 142, 1-methyl-3-(2-(4-(octyloxy)-3-(trifluoromethyl)phenylamino)thiazol-4-yl)pyridinium]
Second: CCCCCCCCOc1ccc(Nc2ncc(-c3cccnc3)s2)cc1C(F)(F)F [Cmp 164, N-(4-(octyloxy)-3-(trifluoromethyl)phenyl)-5-(pyridin-3-yl)thiazol-2-amine]
The EC50 of the first is higher: 1000 to 10000 nM for the first, under 1000 nM for the second. The second is the more potent here.

`CCCCCCCCOc1ccc(Nc2ncc(Br)s2)cc1C(F)(F)F` [Cmp 143, 5-bromo-N-(4-(octyloxy)-3-(trifluoromethyl)phenyl)thiazol-2-amine] and `CCCCCCCCOc1ccc(Nc2ncc(Oc3cccnc3)s2)cc1C(F)(F)F` [Cmp 144, N-(4-(octyloxy)-3-(trifluoromethyl)phenyl)-5-(pyridin-3-yloxy)thiazol-2-amine] cannot be ordered by EC50: under 1000 nM for the first, under 1000 nM for the second.

First: CCCCCCCCOc1ccc(Nc2ncc(Sc3ccncc3)s2)cc1C(F)(F)F [Cmp 146, N-(4-(octyloxy)-3-(trifluoromethyl)phenyl)-5-(pyridin-4-ylthio)thiazol-2-amine]
Second: CCCCCCCCOc1ccc(Nc2nc(-c3cnccn3)c(Cl)s2)cc1C(F)(F)F [Cmp 162, 5-chloro-N-(4-(octyloxy)-3-(trifluoromethyl)phenyl)-4-(pyrazin-2-yl)thiazol-2-amine]
The EC50 of the first is higher: 1000 to 10000 nM for the first, under 1000 nM for the second.

First: O=c1cc(-c2ccccc2)oc2ccc(Nc3nc(-c4cccnc4)cs3)cc12 [Cmp 148, 2-phenyl-6-(4-(pyridin-3-yl)thiazol-2-ylamino)-4H-chromen-4-one]
Second: c1ccc(CCc2cc3cc(Nc4nc(-c5cccnc5)cs4)ccc3o2)cc1 [Cmp 153, N-(2-phenethylbenzofuran-5-yl)-4-(pyridin-3-yl)thiazol-2-amine]
The EC50 of the first is higher: over 10000 nM for the first, under 1000 nM for the second. The second is the more potent here.

`CC(C)(C)c1cc2cc(Nc3nc(-c4cccnc4)cs3)ccc2o1` [Cmp 150, N-(2-tert-butylbenzofuran-5-yl)-4-(pyridin-3-yl)thiazol-2-amine] and `CCCCCCCCOc1ccc(Nc2nc(-c3cccnc3)cs2)cc1S(C)(=O)=O` [Cmp 151, N-(3-(methylsulfonyl)-4-(octyloxy)phenyl)-4-(pyridin-3-yl)thiazol-2-amine] cannot be ordered by EC50: under 1000 nM for the first, under 1000 nM for the second.

`CCCCCCCCOc1ccc(Nc2nc(-c3cccnc3)cs2)cc1C(=O)OC` [Cmp 154, methyl 2-(octyloxy)-5-(4-(pyridin-3-yl)thiazol-2-ylamino)benzoate] and `CCCCCCCCOc1ccc(Nc2nc(-c3cccnc3)cs2)cc1C(N)=O` [Cmp 156, 2-(octyloxy)-5-(4-(pyridin-3-yl)thiazol-2-ylamino)benzamide] cannot be ordered by EC50: under 1000 nM for the first, under 1000 nM for the second.

First: CCCCCCCCN(C)c1ccc(Nc2nc(-c3cccnc3)c(Cl)s2)cc1C(F)(F)F [Cmp 158, N^4-(5-chloro-4-(pyridin-3-yl)thiazol-2-yl)-N^1-methyl-N^1-octyl-2-(trifluoromethyl)benzene-1,4-diamine]
Second: CCCCCCCCc1ccc(N(C)c2nc(-c3cccnc3)c(F)s2)cc1C(F)(F)F [Cmp 160, 5-fluoro-N-methyl-N-(4-octyl-3-(trifluoromethyl)phenyl)-4-(pyridin-3-yl)thiazol-2-amine]
The EC50 of the first is lower: under 1000 nM for the first, 1000 to 10000 nM for the second.

Same assay, conditions: Hepatitis C virus, Huh-7, 72 h, read-out: Activity (inhibition of HCV replicon replication)

With `CCCCCCCCc1ccc(Nc2nc(-c3ccc(OP(=O)(OC)OC)nc3)cs2)cc1C(F)(F)F` [Cmp 134, dimethyl 5-(2-(4-octyl-3-(trifluoromethyl)phenylamino)thiazol-4-yl)pyridin-2-yl phosphate] the EC50 was under 1000 nM.
